Reference: patent US12077503B2, “Substituted cyclic amides and their use as herbicides” (FMC CORPORATION, priority 2015, dated 2024)

Legend:
Format in all cases: in vivo
[1] = tested on: giant foxtail (Setaria faberi); experiment: Test G Post-Emergence Protocol; conditions: Setaria faberi, post-emergence, 312 h
In short: (§1)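 Scores run 0 (no damage) to 100 (total damage) and were taken 13 days after spraying. Plants had been raised in pots for 8 days under glasshouse control (24/16 °C, 14 h photoperiod, 65% humidity) and then treated at 15.625, 62.5 or 250 g/ha.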

[2] = tested on: velvetleaf (Abutilon theophrasti); experiment: Test G Post-Emergence Protocol; conditions: Abutilon theophrasti, post-emergence, 312 h
In short: as §1

[3] = tested on: redroot pigweed (Amaranthus retroflexus); experiment: Test G Post-Emergence Protocol; conditions: Amaranthus retroflexus, post-emergence, 312 h
In short: as §1

[4] = tested on: barnyardgrass (Echinochloa crus-galli); experiment: Test G Post-Emergence Protocol; conditions: Echinochloa crus-galli, post-emergence, 312 h
In short: as §1

[5] = tested on: corn (Zea mays); experiment: Test G Post-Emergence Protocol; conditions: Zea mays, post-emergence, 312 h
In short: as §1

[6] = tested on: ivy-leaved morning glory (Ipomoea hederacea); experiment: Test G Post-Emergence Protocol; conditions: Ipomoea, post-emergence, 312 h
In short: as §1

[7] = tested on: giant foxtail (Setaria faberi); experiment: Test G Pre-Emergence Protocol; conditions: Setaria faberi, pre-emergence, 312 h, evaluated after 13 days
In short: (§2)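 Spraying took place one day after sowing, at 15.625, 62.5 or 250 g/ha, using an acetone/water (50:50) spray solution containing 0.5% Tween 20. Plants were kept under glasshouse conditions (24/16 °C, 14 h light, 65% humidity, watered twice daily), and injury was rated 0–100 at day 13.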

[8] = tested on: velvetleaf (Abutilon theophrasti); experiment: Test G Pre-Emergence Protocol; conditions: Abutilon theophrasti, pre-emergence, 312 h, evaluated after 13 days
In short: as §2

[9] = tested on: redroot pigweed (Amaranthus retroflexus); experiment: Test G Pre-Emergence Protocol; conditions: Amaranthus retroflexus, pre-emergence, 312 h, evaluated after 13 days
In short: as §2

[10] = tested on: barnyardgrass (Echinochloa crus-galli); experiment: Test G Pre-Emergence Protocol; conditions: Echinochloa crus-galli, pre-emergence, 312 h, evaluated after 13 days
In short: as §2

[11] = tested on: corn (Zea mays); experiment: Test G Pre-Emergence Protocol; conditions: Zea mays, pre-emergence, 312 h, evaluated after 13 days
In short: as §2

[12] = tested on: ivy-leaved morning glory (Ipomoea hederacea); experiment: Test G Pre-Emergence Protocol; conditions: Ipomoea, pre-emergence, 312 h, evaluated after 13 days
In short: as §2

CN1C[C@@H](c2ccc(C(F)(F)F)cc2)[C@H](C(=O)Nc2ccon2)C1=O (racemic) [Compound 1506]
0%: pest or weed control at 15.625 g/ha ([1]; 15.625 g ai/ha, evaluated after 13 days (100=total damage to plant; 0=no damage to plant), read-out: Foxtail, Giant damage rating) | pest or weed control at 62.5 g/ha ([1]; 62.5 g ai/ha, evaluated after 13 days, read-out: Foxtail, Giant damage rating (100=total damage to plant; 0=no damage to plant)) | pest or weed control at 250 g/ha ([1]; 250 g ai/ha, evaluated after 13 days, read-out: damage to plant, Foxtail, Giant (100=total damage to plant; 0=no damage to plant)) | pest or weed control at 15.625 g/ha ([2]; 15.625 g ai/ha, evaluated after 13 days (100=total damage to plant; 0=no damage to plant), read-out: Velvetleaf damage rating) | pest or weed control at 62.5 g/ha ([2]; 62.5 g ai/ha, evaluated after 13 days, read-out: Velvetleaf damage rating (100=total damage to plant; 0=no damage to plant)) | pest or weed control at 250 g/ha ([2]; 250 g ai/ha, evaluated after 13 days, read-out: damage to plant, Velvetleaf (100=total damage to plant; 0=no damage to plant)) | pest or weed control at 15.625 g/ha ([3]; 15.625 g ai/ha, evaluated after 13 days (100=total damage to plant; 0=no damage to plant), read-out: Pigweed, Redroot damage rating) | pest or weed control at 62.5 g/ha ([3]; 62.5 g ai/ha, evaluated after 13 days, read-out: Pigweed, Redroot damage rating (100=total damage to plant; 0=no damage to plant)) | pest or weed control at 250 g/ha ([3]; 250 g ai/ha, evaluated after 13 days, read-out: damage to plant, Pigweed, Redroot (100=total damage to plant; 0=no damage to plant)) | pest or weed control at 15.625 g/ha ([4]; 15.625 g ai/ha, evaluated after 13 days (100=total damage to plant; 0=no damage to plant), read-out: Barnyardgrass damage rating) | pest or weed control at 62.5 g/ha ([4]; 62.5 g ai/ha, evaluated after 13 days, read-out: Barnyardgrass damage rating (100=total damage to plant; 0=no damage to plant)) | pest or weed control at 250 g/ha ([4]; 250 g ai/ha, evaluated after 13 days, read-out: damage to plant, Barnyardgrass (100=total damage to plant; 0=no damage to plant)) | plant injury at 15.625 g/ha ([5]; 15.625 g ai/ha, evaluated after 13 days (100=total damage to plant; 0=no damage to plant), read-out: Corn damage rating) | plant injury at 62.5 g/ha ([5]; 62.5 g ai/ha, evaluated after 13 days, read-out: Corn damage rating (100=total damage to plant; 0=no damage to plant)) | plant injury at 250 g/ha ([5]; 250 g ai/ha, evaluated after 13 days, read-out: damage to plant, Corn (100=total damage to plant; 0=no damage to plant)) | pest or weed control at 15.625 g/ha ([6]; 15.625 g ai/ha, evaluated after 13 days (100=total damage to plant; 0=no damage to plant), read-out: Morningglory, Ivy-leaved damage rating) | pest or weed control at 62.5 g/ha ([6]; 62.5 g ai/ha, evaluated after 13 days, read-out: Morningglory, Ivy-leaved damage rating (100=total damage to plant; 0=no damage to plant)) | pest or weed control at 250 g/ha ([6]; 250 g ai/ha, evaluated after 13 days, read-out: damage to plant, Morningglory, Ivy-leaved (100=total damage to plant; 0=no damage to plant)) | pest or weed control at 15.625 g/ha ([7]; 15.625 g ai/ha, read-out: Foxtail, Giant damage rating (100=total damage to plant; 0=no damage to plant)) | pest or weed control at 62.5 g/ha ([7]; 62.5 g ai/ha, 100=total damage to plant, 0=no damage to plant, read-out: plant damage rating, Foxtail, Giant) | pest or weed control at 250 g/ha ([7]; 250 g ai/ha, read-out: Foxtail, Giant damage rating (100=total damage to plant; 0=no damage to plant)) | pest or weed control at 15.625 g/ha ([8]; 15.625 g ai/ha, read-out: Velvetleaf damage rating (100=total damage to plant; 0=no damage to plant)) | pest or weed control at 62.5 g/ha ([8]; 62.5 g ai/ha, 100=total damage to plant, 0=no damage to plant, read-out: plant damage rating, Velvetleaf) | pest or weed control at 250 g/ha ([8]; 250 g ai/ha, read-out: Velvetleaf damage rating (100=total damage to plant; 0=no damage to plant)) | pest or weed control at 15.625 g/ha ([9]; 15.625 g ai/ha, read-out: Pigweed, Redroot damage rating (100=total damage to plant; 0=no damage to plant)) | pest or weed control at 62.5 g/ha ([9]; 62.5 g ai/ha, 100=total damage to plant, 0=no damage to plant, read-out: plant damage rating, Pigweed, Redroot) | pest or weed control at 250 g/ha ([9]; 250 g ai/ha, read-out: Pigweed, Redroot damage rating (100=total damage to plant; 0=no damage to plant)) | pest or weed control at 15.625 g/ha ([10]; 15.625 g ai/ha, read-out: Barnyard grass damage rating (100=total damage to plant; 0=no damage to plant)) | pest or weed control at 62.5 g/ha ([10]; 62.5 g ai/ha, 100=total damage to plant, 0=no damage to plant, read-out: plant damage rating, Barnyardgrass) | pest or weed control at 250 g/ha ([10]; 250 g ai/ha, read-out: Barnyardgrass damage rating (100=total damage to plant; 0=no damage to plant)) | plant injury at 15.625 g/ha ([11]; 15.625 g ai/ha, read-out: Corn damage rating (100=total damage to plant; 0=no damage to plant)) | plant injury at 62.5 g/ha ([11]; 62.5 g ai/ha, 100=total damage to plant, 0=no damage to plant, read-out: plant damage rating, Corn) | plant injury at 250 g/ha ([11]; 250 g ai/ha, read-out: Corn damage rating (100=total damage to plant; 0=no damage to plant)) | pest or weed control at 15.625 g/ha ([12]; 15.625 g ai/ha, read-out: Morning-glory, Ivy-leaved damage rating (100=total damage to plant; 0=no damage to plant)) | pest or weed control at 62.5 g/ha ([12]; 62.5 g ai/ha, 100=total damage to plant, 0=no damage to plant, read-out: plant damage rating, Morningglory, Ivy-leaved) | pest or weed control at 250 g/ha ([12]; 250 g ai/ha, read-out: Morningglory, Ivy-leaved damage rating (100=total damage to plant; 0=no damage to plant))
